Experimental data as given in patent US11572369B2, “Bicyclic pyridine compositions and methods of using the same for cancer therapy” (UNIVERSITY OF SOUTH CAROLINA, priority 2019, dated 2023).

Legend:
Experiment in all cases: KINOMEscan
Format in all cases: binding
Conditions in all cases: 2000 nM
[1] = target: T1, PRKCQ (Homo sapiens, UniProt Q04759)
T1 construct: purchased DiscoveRx (KINOMEscan scanMAX panel)

[2] = target: ABL1(T315I)-phosphorylated (Homo sapiens, UniProt P00519, T315I)
[3] = target: T2, TRKB (Homo sapiens, UniProt Q16620)
T2 construct: DNA label (qPCR read-out); purchased KINOMEscan (DiscoveRx) ScanMAX panel

[4] = target: T3, BRK (Homo sapiens, UniProt Q13882)
T3 construct: DNA label (for qPCR read-out); purchased KINOMEscan scanMAX panel (DiscoveRx)

[5] = target: T4, KIT-autoinhibited (Homo sapiens, UniProt P10721)
T4 construct: purchased KINOMEscan (DiscoveRx) panel service

[6] = target: T5, RPS6KA4(Kin.Dom.1-N-terminal) (Homo sapiens, UniProt O75676)
T5 construct: Kin.Dom.1; DNA label (qPCR read-out); purchased DiscoveRx (KINOMEscan ScanMAX panel)

[7] = target: T6, STK39 (Homo sapiens, UniProt Q9UEW8)
T6 construct: DNA label (for qPCR read-out); purchased DiscoveRx (KINOMEscan scanMAX panel, contract assay)

[8] = target: T7, JAK1(JH1domain-catalytic) (Homo sapiens, UniProt P23458)
T7 construct: JAK1(JH1domain-catalytic); DNA label (qPCR read-out); purchased KINOMEscan (DiscoveRx) ScanMAX panel

[9] = target: T8, STK36 (Homo sapiens, UniProt Q9NRP7)
T8 construct: DNA label (for qPCR read-out); purchased DiscoveRx (KINOMEscan scanMAX panel, contract assay)

[10] = target: T9, ABL1(F317I)-nonphosphorylated (Homo sapiens, UniProt P00519, F317I)
T9 construct: DNA label (qPCR read-out); purchased DiscoverX (KINOMEscan service)

[11] = target: T10, ERK3 (Homo sapiens, UniProt Q16659)
T10 construct: DNA label (qPCR read-out); purchased DiscoveRx (KINOMEscan ScanMAX panel)

[12] = target: T11, STK33 (Homo sapiens, UniProt Q9BYT3)
T11 construct: DNA label (for qPCR read-out); purchased DiscoveRx (KINOMEscan scanMAX panel, contract assay)

[13] = target: T12, INSRR (Homo sapiens, UniProt P14616)
T12 construct: DNA label (qPCR read-out); purchased KINOMEscan (DiscoveRx) ScanMAX panel

[14] = target: T13, WNK4 (Homo sapiens, UniProt Q96J92)
T13 construct: purchased KINOMEscan (DiscoveRx) panel service

[15] = target: T14, RIPK1 (Homo sapiens, UniProt Q13546)
T14 construct: DNA label (qPCR read-out); purchased DiscoveRx (KINOMEscan ScanMAX panel)

[16] = target: ABL1(H396P)-phosphorylated (Homo sapiens, UniProt P00519, H396P)
[17] = target: MARK3 (Homo sapiens, UniProt P27448)
[18] = target: T15, BMX (Homo sapiens, UniProt P51813)
T15 construct: DNA label (for qPCR read-out); purchased KINOMEscan scanMAX panel (DiscoveRx)

[19] = target: T16, RSK3(Kin.Dom.2-C-terminal) (Homo sapiens, UniProt Q15349)
T16 construct: RSK3(Kin.Dom.2); purchased DiscoveRx (KINOMEscan scanMAX panel)

[20] = target: T17, MET(M1250T) (Homo sapiens, UniProt P08581, M1250T)
T17 construct: purchased DiscoveRx (KINOMEscan scanMAX panel, service)

[21] = target: T18, EPHA2 (Homo sapiens, UniProt P29317)
T18 construct: purchased DiscoveRx (KINOMEscan scanMAX panel)

[22] = target: T19, FLT3(D835H) (Homo sapiens, UniProt P36888, D835H)
T19 construct: purchased DiscoveRx (KINOMEscan scanMAX panel)

[23] = system: FLT3(ITD, F691L)
Description: (§1) Nat. Biotechnol. 23, 329-336 (2005).
(§2) Percent Control (% Ctrl).

[24] = target: T20, PFPK5(P.falciparum) (Plasmodium falciparum, UniProt P61075)
T20 construct: DNA label (for qPCR read-out); purchased DiscoveRx (KINOMEscan scanMAX service)
Description: as §1, §2

[25] = target: T21, PRP4 (Homo sapiens, UniProt Q13523)
T21 construct: purchased DiscoveRx (KINOMEscan scanMAX panel)
Description: as §1, §2

[26] = system: FLT3(ITD, D835V)
Description: as §1, §2

[27] = target: T22, CDC2L5 (Homo sapiens, UniProt Q14004)
T22 construct: purchased DiscoverX (KINOMEscan service)
Description: as §1, §2

[28] = target: T23, PFCDPK1(P.falciparum) (Plasmodium falciparum, UniProt P62344)
T23 construct: DNA label (for qPCR read-out); purchased DiscoveRx (KINOMEscan scanMAX service)
Description: as §1, §2

[29] = system: FLT3 (ITD)
Description: as §1, §2

[30] = target: T24, DCAMKL1 (Homo sapiens, UniProt O15075)
T24 construct: DNA label (qPCR read-out); purchased KINOMEscan (DiscoveRx) panel

[31] = target: T25, EPHB3 (Homo sapiens, UniProt P54753)
T25 construct: purchased DiscoveRx (KINOMEscan scanMAX panel)

[32] = target: T26, AMPK-alpha2 (Homo sapiens, UniProt P54646)
T26 construct: DNA label (qPCR read-out); purchased KINOMEscan scanMAX panel (DiscoveRx)

[33] = target: T27, TYK2(JH1domain-catalytic) (Homo sapiens, UniProt P29597)
T27 construct: JH1domain; DNA label (for qPCR read-out); purchased DiscoveRx (KINOMEscan scanMAX panel)
T27 sequence (P29597 897-1176 limits assumed): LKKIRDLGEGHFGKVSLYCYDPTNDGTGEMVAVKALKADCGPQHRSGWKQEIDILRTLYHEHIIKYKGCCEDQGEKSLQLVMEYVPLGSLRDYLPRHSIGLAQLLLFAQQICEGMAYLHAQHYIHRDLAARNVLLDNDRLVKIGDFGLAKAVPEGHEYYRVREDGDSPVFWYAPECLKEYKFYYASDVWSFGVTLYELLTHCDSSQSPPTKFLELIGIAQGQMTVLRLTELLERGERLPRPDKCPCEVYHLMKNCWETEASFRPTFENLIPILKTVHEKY

T14 sequence (Q13546 whole entry): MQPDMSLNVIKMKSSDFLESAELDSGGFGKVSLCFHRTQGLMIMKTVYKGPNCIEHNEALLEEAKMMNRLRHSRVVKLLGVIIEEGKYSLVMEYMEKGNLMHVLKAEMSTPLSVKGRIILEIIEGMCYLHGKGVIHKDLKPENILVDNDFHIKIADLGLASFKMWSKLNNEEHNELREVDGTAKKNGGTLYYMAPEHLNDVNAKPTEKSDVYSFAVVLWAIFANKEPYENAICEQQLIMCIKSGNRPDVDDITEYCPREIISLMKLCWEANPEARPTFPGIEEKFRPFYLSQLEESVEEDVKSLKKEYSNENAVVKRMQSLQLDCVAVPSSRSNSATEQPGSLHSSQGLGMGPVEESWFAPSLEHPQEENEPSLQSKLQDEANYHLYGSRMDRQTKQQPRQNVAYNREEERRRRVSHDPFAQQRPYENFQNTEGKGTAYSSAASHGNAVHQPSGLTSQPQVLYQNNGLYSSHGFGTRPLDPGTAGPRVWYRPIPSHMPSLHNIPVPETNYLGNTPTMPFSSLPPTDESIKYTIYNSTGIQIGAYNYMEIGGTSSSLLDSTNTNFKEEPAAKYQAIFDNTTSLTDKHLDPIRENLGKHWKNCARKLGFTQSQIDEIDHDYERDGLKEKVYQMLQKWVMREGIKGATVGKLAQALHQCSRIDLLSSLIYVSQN
T18 sequence (P29317 24-976): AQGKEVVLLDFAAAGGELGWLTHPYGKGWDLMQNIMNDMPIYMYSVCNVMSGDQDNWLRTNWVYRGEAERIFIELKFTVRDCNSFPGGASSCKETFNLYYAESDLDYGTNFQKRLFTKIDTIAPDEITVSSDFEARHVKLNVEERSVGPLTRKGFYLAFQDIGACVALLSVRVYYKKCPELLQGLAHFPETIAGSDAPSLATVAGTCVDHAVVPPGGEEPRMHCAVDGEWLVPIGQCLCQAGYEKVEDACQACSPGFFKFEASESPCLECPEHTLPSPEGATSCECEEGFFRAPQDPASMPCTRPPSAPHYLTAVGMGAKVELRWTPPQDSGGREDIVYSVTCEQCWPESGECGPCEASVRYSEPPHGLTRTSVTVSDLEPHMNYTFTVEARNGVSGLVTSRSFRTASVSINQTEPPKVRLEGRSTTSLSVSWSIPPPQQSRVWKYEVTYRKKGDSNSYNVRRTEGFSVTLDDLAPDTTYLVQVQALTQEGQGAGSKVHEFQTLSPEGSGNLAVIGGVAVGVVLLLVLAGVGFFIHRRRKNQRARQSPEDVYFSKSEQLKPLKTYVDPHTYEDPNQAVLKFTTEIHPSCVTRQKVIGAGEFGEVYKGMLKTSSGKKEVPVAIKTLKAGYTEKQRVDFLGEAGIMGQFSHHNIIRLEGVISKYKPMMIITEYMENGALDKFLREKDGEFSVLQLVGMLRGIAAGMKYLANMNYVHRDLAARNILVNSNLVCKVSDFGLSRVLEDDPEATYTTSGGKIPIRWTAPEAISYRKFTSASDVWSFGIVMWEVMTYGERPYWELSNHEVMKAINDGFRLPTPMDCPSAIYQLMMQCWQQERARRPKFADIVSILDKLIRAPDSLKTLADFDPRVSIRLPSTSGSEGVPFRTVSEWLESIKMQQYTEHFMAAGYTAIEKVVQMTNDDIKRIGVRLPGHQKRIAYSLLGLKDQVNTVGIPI
T22 sequence (Q14004 whole entry): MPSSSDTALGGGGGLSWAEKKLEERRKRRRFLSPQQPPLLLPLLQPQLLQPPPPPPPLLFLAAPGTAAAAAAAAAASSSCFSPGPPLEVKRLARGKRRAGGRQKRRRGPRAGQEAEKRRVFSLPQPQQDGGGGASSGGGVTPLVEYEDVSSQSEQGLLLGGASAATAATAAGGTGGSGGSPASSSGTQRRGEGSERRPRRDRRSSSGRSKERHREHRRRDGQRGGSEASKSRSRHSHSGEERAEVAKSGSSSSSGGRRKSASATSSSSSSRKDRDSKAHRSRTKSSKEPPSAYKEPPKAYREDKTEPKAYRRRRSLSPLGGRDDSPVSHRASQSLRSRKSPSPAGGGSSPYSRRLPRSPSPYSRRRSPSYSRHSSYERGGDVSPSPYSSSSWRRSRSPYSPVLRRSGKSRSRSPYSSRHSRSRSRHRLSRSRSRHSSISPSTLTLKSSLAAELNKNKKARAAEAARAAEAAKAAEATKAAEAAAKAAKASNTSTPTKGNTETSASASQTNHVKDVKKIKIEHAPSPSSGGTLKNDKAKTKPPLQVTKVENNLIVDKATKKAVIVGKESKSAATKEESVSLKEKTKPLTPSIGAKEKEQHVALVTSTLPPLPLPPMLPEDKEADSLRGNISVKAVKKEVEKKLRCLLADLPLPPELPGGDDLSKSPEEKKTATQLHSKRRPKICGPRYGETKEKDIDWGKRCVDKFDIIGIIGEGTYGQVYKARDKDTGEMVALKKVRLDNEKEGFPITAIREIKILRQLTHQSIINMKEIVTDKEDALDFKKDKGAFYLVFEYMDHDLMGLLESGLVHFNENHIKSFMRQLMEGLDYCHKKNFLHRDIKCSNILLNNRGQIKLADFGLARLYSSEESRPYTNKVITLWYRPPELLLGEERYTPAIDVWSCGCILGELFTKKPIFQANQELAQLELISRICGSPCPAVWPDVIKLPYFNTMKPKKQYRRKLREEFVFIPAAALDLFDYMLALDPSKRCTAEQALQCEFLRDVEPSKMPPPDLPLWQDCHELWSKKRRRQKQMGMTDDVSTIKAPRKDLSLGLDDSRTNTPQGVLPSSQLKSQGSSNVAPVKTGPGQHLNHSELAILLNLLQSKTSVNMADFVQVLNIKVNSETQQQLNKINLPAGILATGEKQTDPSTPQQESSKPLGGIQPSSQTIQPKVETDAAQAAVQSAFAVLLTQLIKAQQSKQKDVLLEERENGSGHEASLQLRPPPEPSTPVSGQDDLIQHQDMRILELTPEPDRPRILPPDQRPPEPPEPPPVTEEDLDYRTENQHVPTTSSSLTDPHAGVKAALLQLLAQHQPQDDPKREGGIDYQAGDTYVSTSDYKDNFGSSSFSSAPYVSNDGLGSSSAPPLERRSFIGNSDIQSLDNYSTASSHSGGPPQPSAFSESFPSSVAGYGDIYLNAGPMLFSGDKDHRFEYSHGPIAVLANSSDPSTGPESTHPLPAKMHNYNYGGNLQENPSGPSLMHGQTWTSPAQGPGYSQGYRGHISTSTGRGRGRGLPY
T7 sequence (P23458 875-1153 limits assumed): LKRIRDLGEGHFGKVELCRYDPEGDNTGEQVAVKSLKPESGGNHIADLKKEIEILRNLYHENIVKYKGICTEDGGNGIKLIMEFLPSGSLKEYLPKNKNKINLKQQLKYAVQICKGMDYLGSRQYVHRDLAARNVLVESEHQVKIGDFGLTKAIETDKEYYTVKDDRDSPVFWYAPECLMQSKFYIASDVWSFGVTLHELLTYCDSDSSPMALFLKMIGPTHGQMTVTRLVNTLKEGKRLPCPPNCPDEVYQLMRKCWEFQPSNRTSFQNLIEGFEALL
T20 sequence (P61075 whole entry): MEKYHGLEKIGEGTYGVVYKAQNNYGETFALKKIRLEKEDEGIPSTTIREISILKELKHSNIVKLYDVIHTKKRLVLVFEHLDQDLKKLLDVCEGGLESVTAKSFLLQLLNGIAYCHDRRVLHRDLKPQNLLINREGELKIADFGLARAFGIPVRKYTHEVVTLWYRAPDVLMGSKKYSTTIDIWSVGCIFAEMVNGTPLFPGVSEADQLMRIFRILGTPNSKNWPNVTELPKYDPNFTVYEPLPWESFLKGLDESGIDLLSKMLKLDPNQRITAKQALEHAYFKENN
T23 sequence (P62344 whole entry): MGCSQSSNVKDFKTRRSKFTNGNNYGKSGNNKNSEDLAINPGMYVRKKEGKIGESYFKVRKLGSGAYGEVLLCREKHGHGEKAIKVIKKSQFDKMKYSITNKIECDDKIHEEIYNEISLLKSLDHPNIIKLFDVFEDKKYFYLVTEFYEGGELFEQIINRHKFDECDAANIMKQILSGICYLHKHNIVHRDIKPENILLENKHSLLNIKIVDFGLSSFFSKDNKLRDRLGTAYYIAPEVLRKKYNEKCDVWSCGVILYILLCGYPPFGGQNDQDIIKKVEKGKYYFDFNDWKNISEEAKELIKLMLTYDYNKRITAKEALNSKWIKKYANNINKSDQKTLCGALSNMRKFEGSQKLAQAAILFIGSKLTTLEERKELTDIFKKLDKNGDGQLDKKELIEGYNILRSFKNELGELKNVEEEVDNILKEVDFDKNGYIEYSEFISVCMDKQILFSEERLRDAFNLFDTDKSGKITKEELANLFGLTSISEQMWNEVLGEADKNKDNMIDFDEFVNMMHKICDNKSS
T3 sequence (Q13882 whole entry): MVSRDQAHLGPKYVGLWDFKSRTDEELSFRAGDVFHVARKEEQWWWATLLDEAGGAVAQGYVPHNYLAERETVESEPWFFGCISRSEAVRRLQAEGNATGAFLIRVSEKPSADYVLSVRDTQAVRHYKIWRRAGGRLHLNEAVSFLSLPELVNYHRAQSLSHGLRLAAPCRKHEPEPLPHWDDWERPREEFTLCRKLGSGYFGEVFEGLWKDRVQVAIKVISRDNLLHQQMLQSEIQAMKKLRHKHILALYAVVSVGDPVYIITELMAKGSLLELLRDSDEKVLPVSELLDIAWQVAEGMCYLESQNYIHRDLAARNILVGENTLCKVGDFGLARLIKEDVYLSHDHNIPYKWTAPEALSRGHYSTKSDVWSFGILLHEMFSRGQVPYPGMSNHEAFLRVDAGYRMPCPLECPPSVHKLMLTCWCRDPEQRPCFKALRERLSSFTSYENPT

Structure (SMILES): CN(C)C(=O)c1ccc(N2CCCN(c3ccnc4sc(C(N)=O)c(N)c34)CC2)cc1 [15u, 3-amino-4-(4-(4-(dimethylcarbamoyl)phenyl)-1,4-diazepan-1-yl)thieno[2,3-b]pyridine-2-carboxamide]
- % Ctrl [1]: 90 % Ctrl
- % Ctrl [2]: 90 % Ctrl
- % Ctrl [3]: 88 % Ctrl
- % Ctrl [4]: 100 % Ctrl
- % Ctrl [5]: 90 % Ctrl
- % Ctrl [6]: 96 % Ctrl
- % Ctrl [7]: 93 % Ctrl
- % Ctrl [8]: 57 % Ctrl
- % Ctrl [9]: 100 % Ctrl
- % Ctrl [10]: 100 % Ctrl
- % Ctrl [11]: 88 % Ctrl
- % Ctrl [12]: 100 % Ctrl
- % Ctrl [13]: 99 % Ctrl
- % Ctrl [14]: 60 % Ctrl
- % Ctrl [15]: 99 % Ctrl
- % Ctrl [16]: 94 % Ctrl
- % Ctrl [17]: 98 % Ctrl
- % Ctrl [18]: 93 % Ctrl
- % Ctrl [19]: 100 % Ctrl
- % Ctrl [20]: 100 % Ctrl
- % Ctrl [21]: 95 % Ctrl
- % Ctrl [22]: 63 % Ctrl
- % Ctrl [23]: 95 % Ctrl
- % Ctrl [24]: 68 % Ctrl
- % Ctrl [25]: 100 % Ctrl
- % Ctrl [26]: 41 % Ctrl
- % Ctrl [27]: 71 % Ctrl
- % Ctrl [28]: 94 % Ctrl
- % Ctrl [29]: 82 % Ctrl
- % Ctrl [30]: 100 % Ctrl
- % Ctrl [31]: 96 % Ctrl
- % Ctrl [32]: 80 % Ctrl
- % Ctrl [33]: 95 % Ctrl

Structure (SMILES): [2H]C([2H])([2H])N(C(=O)c1ccc(N2CCCN(c3ccnc4sc(C(N)=O)c(N)c34)CC2)cc1)C([2H])([2H])[2H] [15u_D6, 3-amino-4-(4-(4-(bis(methyl-d3)carbamoyl)phenyl)-1,4-diazepan-1-yl)thieno[2,3-b]pyridine-2-carboxamide]
- % Ctrl [1]: 87 % Ctrl
- % Ctrl [2]: 78 % Ctrl
- % Ctrl [3]: 78 % Ctrl
- % Ctrl [4]: 99 % Ctrl
- % Ctrl [5]: 90 % Ctrl
- % Ctrl [6]: 100 % Ctrl
- % Ctrl [7]: 94 % Ctrl
- % Ctrl [8]: 82 % Ctrl
- % Ctrl [9]: 100 % Ctrl
- % Ctrl [10]: 93 % Ctrl
- % Ctrl [11]: 94 % Ctrl
- % Ctrl [12]: 100 % Ctrl
- % Ctrl [13]: 89 % Ctrl
- % Ctrl [14]: 98 % Ctrl
- % Ctrl [15]: 100 % Ctrl
- % Ctrl [16]: 77 % Ctrl
- % Ctrl [17]: 100 % Ctrl
- % Ctrl [18]: 100 % Ctrl
- % Ctrl [19]: 89 % Ctrl
- % Ctrl [20]: 96 % Ctrl
- % Ctrl [21]: 100 % Ctrl
- % Ctrl [22]: 76 % Ctrl
- % Ctrl [23]: 75 % Ctrl
- % Ctrl [24]: 67 % Ctrl
- % Ctrl [25]: 88 % Ctrl
- % Ctrl [26]: 34 % Ctrl
- % Ctrl [27]: 80 % Ctrl
- % Ctrl [28]: 61 % Ctrl
- % Ctrl [29]: 72 % Ctrl
- % Ctrl [30]: 89 % Ctrl
- % Ctrl [31]: 94 % Ctrl
- % Ctrl [32]: 95 % Ctrl
- % Ctrl [33]: 82 % Ctrl
